In ChEMBL document CHEMBL1142603, “Manzamine B and E and ircinal A related alkaloids from an Indonesian Acanthostrongylophora sponge and their activity against infectious, tropical parasitic, and Alzheimer's diseases” (J Nat Prod, 2006):
Converted amounts (≈) assume the structure as drawn. The source made the active and inactive calls. The rule behind the calls is not given here.

What was measured:
Staphylococcus aureus [1] = assay: Antibacterial activity against methicillin-resistant Staphylococcus aureus; type: functional, organism-based
Vero [2] = assay: Cytotoxicity against african green monkey Vero cells at 4.76 ug/mL by neutral red assay; type: cell-based; settings: chlorocebus sabaeus
Plasmodium falciparum [3] = assay: Antimalarial activity after 72 hrs against chloroquine-resistant Plasmodium falciparum W2 in erythrocytes at […] by LDH reporter assay; type: functional, organism-based
[4] = tested on: Mycobacterium intracellulare; assay: Antibacterial activity against Mycobacterium intracellular by alamar blue assay; type: functional, organism-based
Plasmodium falciparum [5] = assay: Antimalarial activity after 72 hrs against chloroquine-sensitive Plasmodium falciparum D6 in erythrocytes at […] by LDH reporter assay; type: functional, organism-based
[6] = target: Beta-secretase 1 (Homo sapiens) (UniProt P56817); assay: Inhibition of human recombinant BACE1 by FRET-based assay
Beta-secretase 1 (Homo sapiens), sequence (P56817 whole entry): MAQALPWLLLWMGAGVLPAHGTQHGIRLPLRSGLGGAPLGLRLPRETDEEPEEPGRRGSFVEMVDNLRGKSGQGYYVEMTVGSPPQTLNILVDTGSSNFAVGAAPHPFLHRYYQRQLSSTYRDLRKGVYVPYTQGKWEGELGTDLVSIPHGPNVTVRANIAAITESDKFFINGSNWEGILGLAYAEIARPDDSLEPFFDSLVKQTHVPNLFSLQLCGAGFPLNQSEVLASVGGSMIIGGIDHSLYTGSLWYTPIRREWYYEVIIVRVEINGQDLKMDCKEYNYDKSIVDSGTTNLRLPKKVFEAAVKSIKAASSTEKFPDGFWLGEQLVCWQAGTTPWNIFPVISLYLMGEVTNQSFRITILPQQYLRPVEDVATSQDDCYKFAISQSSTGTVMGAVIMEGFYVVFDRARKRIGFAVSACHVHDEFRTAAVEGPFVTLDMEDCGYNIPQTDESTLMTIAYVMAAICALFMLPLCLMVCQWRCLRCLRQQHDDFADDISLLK

Cryptococcus neoformans = assay: Antifungal activity against Cryptococcus neoformans; type: functional, organism-based
Staphylococcus aureus [7] = assay: Antibacterial activity against Staphylococcus aureus; type: functional, organism-based
[8] = target: T1, Acetylcholinesterase (Bos taurus) (UniProt P23795); assay: Inhibition of bovine AChE
T1 sequence (whole entry): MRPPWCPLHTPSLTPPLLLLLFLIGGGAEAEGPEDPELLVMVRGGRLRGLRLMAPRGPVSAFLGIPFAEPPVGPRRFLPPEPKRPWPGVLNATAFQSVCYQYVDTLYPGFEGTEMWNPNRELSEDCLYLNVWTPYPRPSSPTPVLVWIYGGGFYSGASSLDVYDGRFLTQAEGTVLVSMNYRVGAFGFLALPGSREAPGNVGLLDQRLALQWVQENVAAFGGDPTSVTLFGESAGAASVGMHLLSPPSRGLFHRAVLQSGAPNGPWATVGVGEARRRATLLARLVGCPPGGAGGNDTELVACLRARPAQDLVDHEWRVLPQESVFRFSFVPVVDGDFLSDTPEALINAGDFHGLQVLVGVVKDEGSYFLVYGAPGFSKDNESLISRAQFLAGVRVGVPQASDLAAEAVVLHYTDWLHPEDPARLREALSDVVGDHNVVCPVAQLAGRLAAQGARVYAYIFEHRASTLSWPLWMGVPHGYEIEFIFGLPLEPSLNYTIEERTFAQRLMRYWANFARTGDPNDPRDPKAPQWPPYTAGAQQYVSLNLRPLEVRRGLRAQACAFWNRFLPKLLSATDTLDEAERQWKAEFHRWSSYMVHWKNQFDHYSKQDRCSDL

[9] = tested on: Human immunodeficiency virus 1; assay: Antiviral activity against HIV1 3B assessed as reverse transcriptase activity by enzyme immunoassay; type: functional, organism-based; settings: Human immunodeficiency virus 1, 3B
Leishmania donovani = assay: Antileishmanial activity against Leishmania donovani after 72 hrs by alamar blue assay; type: functional, organism-based
Plasmodium falciparum [10] = assay: Antimalarial activity after 72 hrs against chloroquine-sensitive Plasmodium falciparum D6 in erythrocytes by LDH reporter assay; type: functional, organism-based; settings: D6, 72 h
Plasmodium falciparum [11] = assay: Antimalarial activity after 72 hrs against chloroquine-resistant Plasmodium falciparum W2 in erythrocytes by LDH reporter assay; type: functional, organism-based; settings: W2, 72 h
[12] = target: Glycogen synthase kinase-3 beta (Homo sapiens) (UniProt P49841); assay: Inhibition of human recombinant GSK3-beta assessed as incorporation of [33P]gammaATP into G2S peptide at 25 uM
Glycogen synthase kinase-3 beta (Homo sapiens), sequence (P49841 whole entry, looked up): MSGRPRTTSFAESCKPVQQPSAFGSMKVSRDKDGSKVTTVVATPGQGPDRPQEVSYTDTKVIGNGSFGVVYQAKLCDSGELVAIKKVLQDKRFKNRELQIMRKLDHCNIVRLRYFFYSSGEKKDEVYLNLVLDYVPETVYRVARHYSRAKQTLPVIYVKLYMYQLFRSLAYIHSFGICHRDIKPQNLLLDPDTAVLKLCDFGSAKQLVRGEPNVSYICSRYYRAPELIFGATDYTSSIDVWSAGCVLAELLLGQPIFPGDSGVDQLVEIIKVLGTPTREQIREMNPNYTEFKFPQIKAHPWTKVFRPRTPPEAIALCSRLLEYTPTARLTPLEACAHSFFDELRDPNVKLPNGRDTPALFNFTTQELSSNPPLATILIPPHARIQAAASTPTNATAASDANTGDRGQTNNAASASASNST

[13] = tested on: Mycobacterium tuberculosis; assay: Antituberculosis activity against Mycobacterium tuberculosis H37Rv after 24 hrs by alamar blue assay; type: functional
Vero [14] = assay: Cytotoxicity against african green monkey Vero cells by neutral red assay; type: cell-based; settings: chlorocebus sabaeus

SMILES	Activity (Staphylococcus aureus [1])	Activity (Vero [2])	Activity [6]	Activity (Cryptococcus neoformans)	Activity (Staphylococcus aureus [7])	Activity [8]	IC50 [9]	IC50 (Leishmania donovani)	IC90 (Leishmania donovani)	IC50 (Plasmodium falciparum [10])	IC50 (Plasmodium falciparum [11])	IC50 [4]	MIC [13]	also measured
Oc1cccc2c3cc[nH]c(C4=C[C@]56CC/C=C\CCCCN7CC[C@@H]4[C@]4(C[C@@H]8/C=C\CCC[C@@H](O5)N8[C@H]46)C7)c-3nc12 [12,28-OXA-8-HYDROXY-MANZAMINE A]	inactive	Non-toxic	inactive	inactive	inactive	inactive	–	–	–	–	–	–	–	Activity (Plasmodium falciparum [3]): inactive; Activity [4]: inactive; Activity (Plasmodium falciparum [5]): inactive
C1=C(c2[nH]ccc3c4ccccc4nc2-3)[C@@H]2CCN3CCCC/C=C\CC[C@]14O[C@@H]1CCC/C=C\[C@H]5C[C@@]2(C3)[C@H]4N51 [12,28-OXAMANZAMINE A]	inactive	Non-toxic	inactive	inactive	inactive	inactive	22.2 µg/mL (≈ 40.6 µM)	7.8 µg/mL (≈ 14.3 µM)	50 µg/mL (≈ 91.4 µM)	–	–	–	–	Activity (Plasmodium falciparum [3]): inactive; Activity [4]: inactive; Activity (Plasmodium falciparum [5]): inactive
C[C@@H]1[C@H](O)[C@@H](C)/C=C/C=C/C=C/C=C/C=C/C=C/C=C/[C@H](O[C@@H]2O[C@H](C)[C@@H](O)[C@H](N)[C@@H]2O)C[C@@H]2O[C@](O)(C[C@@H](O)C[C@@H](O)[C@H](O)CC[C@@H](O)C[C@@H](O)CC(=O)O[C@H]1C)C[C@H](O)[C@H]2C(=O)O [AMPHOTERICIN B]	–	–	–	–	–	–	–	0.06 µg/mL (≈ 0.0649 µM)	0.15 µg/mL (≈ 0.162 µM)	–	–	–	–	IC50 (Cryptococcus neoformans): 0.15 µg/mL (≈ 0.162 µM)
C[C@@H]1CC[C@H]2[C@@H](C)C(=O)O[C@@H]3O[C@@]4(C)CC[C@@H]1[C@]32OO4 [ARTEMISININ]	–	–	–	–	–	–	–	–	–	0.01 µg/mL (≈ 0.0354 µM)	0.0063 µg/mL (≈ 0.0223 µM)	–	–	–
O=C(O)c1cn(C2CC2)c2cc(N3CCNCC3)c(F)cc2c1=O [CIPROFLOXACIN]	–	–	–	–	–	–	–	–	–	–	–	0.25 µg/mL (≈ 0.754 µM)	–	–
O=C1CCCN2[C@@H](CC1)C[C@]13CN4CCCC/C=C\CC[C@](O)(C=C(c5nccc6c5[nH]c5ccccc56)C1CC4)[C@H]23 (some centres not stated) [MANZAMINE E]	inactive	Non-toxic	inactive	inactive	inactive	inactive	13.1 µg/mL (≈ 23.2 µM)	3.8 µg/mL (≈ 6.73 µM)	6.8 µg/mL (≈ 12 µM)	3.4 µg/mL (≈ 6.02 µM)	4.76 µg/mL (≈ 8.43 µM)	12.5 µg/mL (≈ 22.1 µM)	3.8 µg/mL (≈ 6.73 µM)	inhibition [12]: 53.6%
O=C1CCCN2[C@@H](CC1)C[C@]13CN4CCCC/C=C\CC[C@](O)(C=C(c5nccc6c5[nH]c5c(O)cccc56)C1CC4)[C@H]23 (some centres not stated) [MANZAMINE F]	inactive	Non-toxic	inactive	–	inactive	inactive	7.3 µg/mL (≈ 12.6 µM)	4.2 µg/mL (≈ 7.23 µM)	7 µg/mL (≈ 12.1 µM)	0.78 µg/mL (≈ 1.34 µM)	1.7 µg/mL (≈ 2.93 µM)	6.25 µg/mL (≈ 10.8 µM)	2.6 µg/mL (≈ 4.48 µM)	inhibition [12]: 29.9%; IC50 (Cryptococcus neoformans): 6.5 µg/mL (≈ 11.2 µM)
Oc1ccc2[nH]c3c(C4=C[C@@]5(O)CC/C=C\CCCCN6CC[C@@H]4[C@]4(C[C@@H]7/C=C\CCCCN7[C@H]45)C6)nccc3c2c1 [MANZAMINE Y]	–	–	inactive	inactive	–	inactive	–	1.6 µg/mL (≈ 2.83 µM)	8 µg/mL (≈ 14.2 µM)	0.42 µg/mL (≈ 0.744 µM)	0.85 µg/mL (≈ 1.51 µM)	3.5 µg/mL (≈ 6.2 µM)	5.2 µg/mL (≈ 9.21 µM)	IC50 (Staphylococcus aureus [1]): 15 µg/mL (≈ 26.6 µM); inhibition [12]: 74.3%; IC50 (Vero [14]): 3.9 µg/mL (≈ 6.91 µM); IC50 (Staphylococcus aureus [7]): 15 µg/mL (≈ 26.6 µM)
N=C(N)c1ccc(OCCCCCOc2ccc(C(=N)N)cc2)cc1 [PENTAMIDINE]	–	–	–	–	–	–	–	2.1 µg/mL (≈ 6.17 µM)	10 µg/mL (≈ 29.4 µM)	–	–	–	–	–
CO[C@H]1/C=C/O[C@@]2(C)Oc3c(C)c(O)c4c(O)c(c(/C=N/N5CCN(C)CC5)c(O)c4c3C2=O)NC(=O)/C(C)=C\C=C\[C@H](C)[C@H](O)[C@@H](C)[C@@H](O)[C@@H](C)[C@H](OC(C)=O)[C@@H]1C [RIFAMPIN]	–	–	–	–	–	–	–	–	–	–	–	–	0.5 µg/mL (≈ 0.608 µM)	–
Cc1cn([C@H]2C[C@H](N=[N+]=[N-])[C@@H](CO)O2)c(=O)[nH]c1=O [ZIDOVUDINE]	–	–	–	–	–	–	0.004 µg/mL (≈ 0.015 µM)	–	–	–	–	–	–	–
